# Experimental data: article PMC9403976, “Elucidating the path to Plasmodium prolyl-tRNA synthetase inhibitors that overcome halofuginone resistance” (Nature Communications, 2022)
# Values joined by “and” are separate entries in the source; they are usually repeats but may differ in a detail not shown here. Equal values may be shown once. Read-outs that look alike come from different tables or passages of the source.
# Experiments:
# [1] = molecular target: HsProRS (Homo sapiens, UniProt P07814); experiment: TR-FRET ligand displacement assay with tracer MAT379 (CoraFluor-1-Halo and anti-His6 antibody formats); assay type: binding; parameters: made in house; host or cells: E. coli SoluBL-21; conditions: for TR-FRET dose-response, normalized signal (SI Fig 11): individual replicates
# Chain of HsProRS (P07814 996-1512): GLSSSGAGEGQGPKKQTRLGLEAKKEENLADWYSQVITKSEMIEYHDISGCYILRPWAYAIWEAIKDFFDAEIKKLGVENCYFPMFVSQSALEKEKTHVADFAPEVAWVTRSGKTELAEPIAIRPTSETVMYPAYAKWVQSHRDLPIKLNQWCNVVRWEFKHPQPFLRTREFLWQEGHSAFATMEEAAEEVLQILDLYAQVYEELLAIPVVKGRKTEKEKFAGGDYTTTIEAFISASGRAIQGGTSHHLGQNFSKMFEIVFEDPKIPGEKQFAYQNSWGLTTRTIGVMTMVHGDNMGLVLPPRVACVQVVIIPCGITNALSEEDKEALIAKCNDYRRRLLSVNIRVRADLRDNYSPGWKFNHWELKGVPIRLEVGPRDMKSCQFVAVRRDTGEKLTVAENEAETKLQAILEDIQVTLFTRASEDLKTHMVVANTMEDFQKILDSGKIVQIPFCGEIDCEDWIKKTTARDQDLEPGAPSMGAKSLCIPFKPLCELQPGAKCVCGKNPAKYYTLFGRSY
# [2] = tested on: P. falciparum Dd2-2D4; experiment: P. falciparum asexual blood stage (ABS) growth assay, SYBR Green, 72 h, wild-type parasites; assay type: cell-based, Plasmodium falciparum; conditions: Plasmodium falciparum, DD2; SI Fig 16b; values on -log scale; read-out: ABS - Dd2-2D4 (converted)
# [3] = molecular target: T1, PfcProRS (Plasmodium falciparum, UniProt Q8I5R7); assay type: binding; conditions: single replicates
# T1 construct: made in house; host or cells: E. coli SoluBL-21
# T1 sequence (Q8I5R7 249-746): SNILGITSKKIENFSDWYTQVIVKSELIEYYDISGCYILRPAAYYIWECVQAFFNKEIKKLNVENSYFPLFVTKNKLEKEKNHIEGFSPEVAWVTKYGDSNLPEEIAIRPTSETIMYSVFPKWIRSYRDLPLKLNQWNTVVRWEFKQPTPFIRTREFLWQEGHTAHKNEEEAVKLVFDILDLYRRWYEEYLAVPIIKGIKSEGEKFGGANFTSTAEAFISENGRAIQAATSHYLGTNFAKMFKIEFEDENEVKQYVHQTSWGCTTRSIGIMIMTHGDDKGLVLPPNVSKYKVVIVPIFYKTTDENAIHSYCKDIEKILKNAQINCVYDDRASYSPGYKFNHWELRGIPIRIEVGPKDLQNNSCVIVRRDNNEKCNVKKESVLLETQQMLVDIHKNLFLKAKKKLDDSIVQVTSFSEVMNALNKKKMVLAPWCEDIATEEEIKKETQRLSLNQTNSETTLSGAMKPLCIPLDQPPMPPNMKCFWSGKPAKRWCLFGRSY
structure (smiles),measurement,setting,value
CC(C)(C)OC(=O)NC1(C(=O)Nc2nccnc2C(=O)NC2Cc3ccccc3C2)CCCCC1 [compound 16],IC50,[1],> 10 µM
same,"HsProRS % signal at 10 μM, + 100 μM proline","[1]; + 100 μM proline, 10 μM",70.7%
same,"normalized TR-FRET ligand displacement signal, dose-response replicates (SI Fig 6)",[1]; Log[inhibitor] (M) -5.000,4.34E-01 and 4.81E-01 and 6.11E-01
same,"TR-FRET dose-response, normalized signal (SI Fig 11)",[1]; Log[inhibitor] (M) -5.000,8.52E-01 and 8.40E-01 and 8.43E-01
same,"normalized TR-FRET ligand displacement signal, dose-response replicates (SI Fig 6)",[1]; Log[inhibitor] (M) -5.301,6.93E-01 and 7.38E-01 and 8.04E-01
same,"TR-FRET dose-response, normalized signal (SI Fig 11)",[1]; Log[inhibitor] (M) -5.301,9.27E-01 and 9.08E-01 and 9.74E-01
same,"normalized TR-FRET ligand displacement signal, dose-response replicates (SI Fig 6)",[1]; Log[inhibitor] (M) -5.601,9.79E-01 and 9.61E-01 and 8.02E-01
same,"TR-FRET dose-response, normalized signal (SI Fig 11)",[1]; Log[inhibitor] (M) -5.601,9.47E-01 and 9.15E-01 and 9.10E-01
same,"normalized TR-FRET ligand displacement signal, dose-response replicates (SI Fig 6)",[1]; Log[inhibitor] (M) -5.904,1.00E+00 and 9.00E-01 and 9.53E-01
same,"TR-FRET dose-response, normalized signal (SI Fig 11)",[1]; Log[inhibitor] (M) -5.904,9.81E-01 and 1.01E+00 and 9.64E-01
same,"normalized TR-FRET ligand displacement signal, dose-response replicates (SI Fig 6)",[1]; Log[inhibitor] (M) -6.208,1.01E+00 and 9.68E-01 and 8.67E-01
same,"TR-FRET dose-response, normalized signal (SI Fig 11)",[1]; Log[inhibitor] (M) -6.208,9.74E-01 and 9.73E-01 and 9.58E-01
same,"normalized TR-FRET ligand displacement signal, dose-response replicates (SI Fig 6)",[1]; Log[inhibitor] (M) -6.509,8.93E-01 and 9.31E-01 and 9.89E-01
same,"TR-FRET dose-response, normalized signal (SI Fig 11)",[1]; Log[inhibitor] (M) -6.509,9.98E-01 and 9.53E-01 and 9.97E-01
same,"normalized TR-FRET ligand displacement signal, dose-response replicates (SI Fig 6)",[1]; Log[inhibitor] (M) -6.796,9.58E-01 and 1.05E+00 and 1.01E+00
same,"TR-FRET dose-response, normalized signal (SI Fig 11)",[1]; Log[inhibitor] (M) -6.796,9.61E-01 and 9.66E-01 and 9.67E-01
same,"normalized TR-FRET ligand displacement signal, dose-response replicates (SI Fig 6)",[1]; Log[inhibitor] (M) -7.108,9.61E-01 and 9.43E-01 and 9.87E-01
same,"TR-FRET dose-response, normalized signal (SI Fig 11)",[1]; Log[inhibitor] (M) -7.108,9.51E-01 and 9.57E-01 and 9.59E-01
same,"normalized TR-FRET ligand displacement signal, dose-response replicates (SI Fig 6)",[1]; Log[inhibitor] (M) -7.409,1.08E+00 and 1.02E+00 (2×)
same,"TR-FRET dose-response, normalized signal (SI Fig 11)",[1]; Log[inhibitor] (M) -7.409,9.88E-01 and 8.98E-01 and 1.00E+00
same,"normalized TR-FRET ligand displacement signal, dose-response replicates (SI Fig 6)",[1]; Log[inhibitor] (M) -7.710,9.30E-01 and 9.73E-01 and 8.91E-01
same,"TR-FRET dose-response, normalized signal (SI Fig 11)",[1]; Log[inhibitor] (M) -7.710,9.77E-01 and 9.48E-01 and 9.54E-01
same,"normalized TR-FRET ligand displacement signal, dose-response replicates (SI Fig 6)",[1]; Log[inhibitor] (M) -8.000,9.09E-01 and 9.96E-01 and 8.17E-01
same,"TR-FRET dose-response, normalized signal (SI Fig 11)",[1]; Log[inhibitor] (M) -8.000,9.83E-01 and 9.29E-01 and 9.65E-01
same,"normalized TR-FRET ligand displacement signal, dose-response replicates (SI Fig 6)",[1]; Log[inhibitor] (M) -8.301,9.56E-01 and 8.69E-01 and 9.45E-01
same,"TR-FRET dose-response, normalized signal (SI Fig 11)",[1]; Log[inhibitor] (M) -8.301,1.00E+00 and 1.01E+00 and 9.30E-01
same,"normalized TR-FRET ligand displacement signal, dose-response replicates (SI Fig 6)",[1]; Log[inhibitor] (M) -8.602,9.44E-01 and 9.32E-01 and 1.00E+00
same,"TR-FRET dose-response, normalized signal (SI Fig 11)",[1]; Log[inhibitor] (M) -8.602,9.93E-01 and 9.41E-01 and 1.01E+00
same,"normalized TR-FRET ligand displacement signal, dose-response replicates (SI Fig 6)",[1]; Log[inhibitor] (M) -9.000,8.94E-01 and 8.85E-01 and 9.67E-01
same,"TR-FRET dose-response, normalized signal (SI Fig 11)",[1]; Log[inhibitor] (M) -9.000,9.74E-01 and 9.63E-01 and 9.89E-01
same,"normalized TR-FRET ligand displacement signal, dose-response replicates (SI Fig 6)",[1]; Log[inhibitor] (M) -9.301,1.12E+00 and 1.00E+00 and 9.62E-01
same,"TR-FRET dose-response, normalized signal (SI Fig 11)",[1]; Log[inhibitor] (M) -9.301,9.82E-01 and 9.33E-01 and 9.53E-01
same,HsProRS % signal at 10 μM,"[1]; no added proline/ATP (-), 10 μM",84.5%
same,IC50,"[1]; read-out: HsProRS IC50 + 100 μM proline, + 100 μM proline",> 10 µM
same,EC50,[2],6.11 µM
same,"dose-response signal (normalized), SI Fig 8",[3]; Log[inhibitor] (M) -5.000,6.20E-01 and 5.27E-01 and 6.63E-01
same,"dose-response signal (normalized), SI Fig 8",[3]; Log[inhibitor] (M) -5.301,7.82E-01 and 8.01E-01 and 7.78E-01
same,"dose-response signal (normalized), SI Fig 8",[3]; Log[inhibitor] (M) -5.601,9.11E-01 and 9.60E-01 and 1.00E+00
same,"dose-response signal (normalized), SI Fig 8",[3]; Log[inhibitor] (M) -5.904,1.10E+00 and 9.14E-01 and 1.01E+00
same,"dose-response signal (normalized), SI Fig 8",[3]; Log[inhibitor] (M) -6.208,9.01E-01 and 9.36E-01 and 9.23E-01
same,"dose-response signal (normalized), SI Fig 8",[3]; Log[inhibitor] (M) -6.509,1.06E+00 and 9.75E-01 and 1.11E+00
same,"dose-response signal (normalized), SI Fig 8",[3]; Log[inhibitor] (M) -6.796,9.95E-01 (2×) and 1.12E+00
same,"dose-response signal (normalized), SI Fig 8",[3]; Log[inhibitor] (M) -7.108,9.41E-01 and 8.82E-01 and 1.04E+00
same,"dose-response signal (normalized), SI Fig 8",[3]; Log[inhibitor] (M) -7.409,1.04E+00 and 1.02E+00 and 9.01E-01
same,"dose-response signal (normalized), SI Fig 8",[3]; Log[inhibitor] (M) -7.710,9.65E-01 and 9.90E-01 and 1.00E+00
same,"dose-response signal (normalized), SI Fig 8",[3]; Log[inhibitor] (M) -8.000,9.92E-01 and 8.87E-01 and 9.29E-01
same,"dose-response signal (normalized), SI Fig 8",[3]; Log[inhibitor] (M) -8.301,9.41E-01 and 9.84E-01 and 9.99E-01
same,"dose-response signal (normalized), SI Fig 8",[3]; Log[inhibitor] (M) -8.602,9.39E-01 and 9.44E-01 and 1.00E+00
same,"dose-response signal (normalized), SI Fig 8",[3]; Log[inhibitor] (M) -9.000,9.16E-01 and 9.94E-01 and 9.86E-01
same,"dose-response signal (normalized), SI Fig 8",[3]; Log[inhibitor] (M) -9.301,9.11E-01 and 9.01E-01 and 9.58E-01
